How the values were obtained:
[1] = tested on: TAS2R4 in human anagen hair follicles; test: Activation of TAS2R4 with Rebaudioside A in cultured hair follicles; format: cell-based
Method: (§1) For analyzing the effect of activating TAS2R4 by the agonist Rebaudioside A, human anagen hair follicles from 2 donors were cultured in WEM medium supplemented with 2 mM L-glutamine, 10 ng/mL hydrocortisone, 10 μg/mL insulin and 1% penicillin/streptomycin mix (WCM medium), and treated either with 200 μM Rebaudioside A (Sigma-Aldrich, cat. 01432) diluted in DMSO or vehicle (0.5% DMSO in WCM medium) according to the following procedure:
(§2) Day 0: Isolation of anagen hair follicles
Day 1: Change WCM media, application of the substance corresponding to experimental groups (control group: 0.5% DMSO, experimental group: 200 μM Rebaudioside A)
(§3) Day 6: Collection and freezing of hair follicles for analyses

[2] = tested on: TAS2R4 in anagen hair follicles; test: Activation of TAS2R4 with Stevioside in cultured hair follicles; format: cell-based, human
Method: To determine the effect of activating TAS2R4 by the agonist Stevioside, anagen hair follicles were cultured in WEM medium supplemented with 2 mM L-glutamine, 10 ng/mL hydrocortisone, 10 μg/mL insulin and 1% penicillin/streptomycin mix (WCM medium), and treated either with 200 μM Stevioside (Sigma-Aldrich, cat. 50956) diluted in DMSO or vehicle (0.2% DMSO in WCM medium) according to the following procedure: Day 0: Isolation of anagen hair follicles Day 1: Change media, application of the substance corresponding to experimental groups (control group: 0.2% DMSO, experimental group: 200 μM Stevioside) Day 2: Rest Day 3: Change media Day 4: Rest Day 5: Change media Day 6: Rest Day 7: Collection and freezing of hair follicles for analyses

[3] = tested on: TAS2R4 in anagen hair follicles; test: Activation of TAS2R4 with Rubusoside in cultured hair follicles; format: cell-based, human
Method: as §1, with “Rubusoside,” for “Rebaudioside A, human anagen”, “follicles” for “follicles from 2 donors”, “50” for “200”, “Rubusoside” for “Rebaudioside A”, “62933)” for “01432)”, “(0.05%” for “(0.5%”
as §2
Day 1: Change media, application of the substance corresponding to experimental groups (control group: 0.05% DMSO, experimental group: 50 μM Rubusoside)
as §3

[4] = tested on: TAS2R4 in anagen hair follicles; test: Inactivation of TAS2R4 with BCML in cultured hair follicles; format: cell-based, human
Method: For analyzing the effect of inactivating TAS2R4, by the inverse agonist Nα,Nα-bis(carboxymethyl)-l-lysine (BCML), hair follicles were cultured in WEM medium supplemented with 2 mM L-glutamine, 10 ng/mL hydrocortisone, 10 μg/mL insulin and 1% penicillin/streptomycin mix (WCM medium), and treated either with 120 μM BCML (Sigma-Aldrich, cat. 14580) diluted in WCM or vehicle (WCM medium) according to the following procedure:
as §2
Day 1: Change media, application of the substance corresponding to experimental groups (control group: WCM, experimental group: 120 μM BCML)
Day 7: Collection and freezing of hair follicles for analyses

[5] = 200 μM Rebaudioside A vs 0.5% DMSO, collection day 6
[6] = 200 μM Stevioside vs 0.2% DMSO, collection day 7
[7] = 120 μM BCML vs vehicle (WCM), collection day 7

How did the “proportion of hair follicles in catagen stage” value ([1]; 200 μM Rebaudioside A vs 0.5% DMSO, 2 donors, collection day 6) turn out when `C=C1C[C@@]23CC[C@H]4[C@@](C)(CCC[C@@]4(C)C(=O)O[C@@H]4O[C@H](CO)[C@@H](O)[C@H](O)[C@H]4O)[C@@H]2CC[C@]1(O[C@@H]1O[C@H](CO)[C@@H](O)[C@H](O[C@@H]2O[C@H](CO)[C@@H](O)[C@H](O)[C@H]2O)[C@H]1O[C@@H]1O[C@H](CO)[C@@H](O)[C@H](O)[C@H]1O)C3` [Rebaudioside A] was run?
The value was “increases”.

What about the apoptosis [1, 5] of the same compound?
Its apoptosis is “increases”.

And the “hair matrix keratinocyte proliferation” value [1, 5]?
Its value is “decreases”.

And the pigmentation [1, 5]?
Its pigmentation is “hypopigmentation”.

And the hair growth ([1]; summary statement, Rebaudioside A)?
The hair growth was “hair growth inhibition”.

How did the apoptosis [2, 6] turn out when `C=C1C[C@@]23CC[C@H]4[C@@](C)(CCC[C@@]4(C)C(=O)O[C@@H]4O[C@H](CO)[C@@H](O)[C@H](O)[C@H]4O)[C@@H]2CC[C@]1(O[C@@H]1O[C@H](CO)[C@@H](O)[C@H](O)[C@H]1O[C@@H]1O[C@H](CO)[C@@H](O)[C@H](O)[C@H]1O)C3` [Stevioside] was run?
Its apoptosis is “does not affect”.

And the “hair matrix keratinocyte proliferation” value [2, 6]?
Its value is “decreases”.

What about the “proportion of hair follicles in catagen stage” value [2, 6] of the same compound?
The value was “increases”.

What about the hair growth ([2]; summary statement, Stevioside) of the same compound?
Its hair growth is “hair growth inhibition”.

How did the “proportion of human hair follicles in catagen stage” value ([3]; 50 μM Rubusoside vs 0.05% DMSO, collection day 6) turn out when `C=C1C[C@@]23CC[C@H]4[C@@](C)(CCC[C@@]4(C)C(=O)O[C@@H]4O[C@H](CO)[C@@H](O)[C@H](O)[C@H]4O)[C@@H]2CC[C@]1(O[C@@H]1O[C@H](CO)[C@@H](O)[C@H](O)[C@H]1O)C3` [Rubusoside] was run?
The value was “increases”.

And the hair growth ([3]; summary statement, Rubusoside)?
The hair growth was “hair growth inhibition”.

Which results are given for `NCCCC[C@@H](C(=O)O)N(CC(=O)O)CC(=O)O` [BCML, Nα,Nα-bis(carboxymethyl)-l-lysine]?
apoptosis [4, 7]: does not affect; hair matrix keratinocyte proliferation [4, 7]: increases; pigmentation [4, 7]: increases; proportion of hair follicles in anagen stage [4, 7]: increases; hair growth ([4]; summary statement, anagen hair follicles, BCML): hair growth promotion

Reference: patent publication US20220168206A1, “ACTIVE AGENT FOR USE IN HAIR GROWTH REGULATION” (MONASTERIUM LABORATORY SKIN & HAIR RESEARCH SOLUTIONS GMBH, priority 2019, published 2022)
